The source of these data is ChEMBL document CHEMBL1136277, “(R)-3-(N-methylpyrrolidin-2-ylmethyl)-5-(1,2,3,6-tetrahydropyridin-4-yl)-1H-indole derivatives as high affinity h5-HT1B/1D ligands” (Bioorg Med Chem Lett, 2003).

Experiment [1] concerns the target 5-hydroxytryptamine receptor 1D (Homo sapiens, UniProt P28221). Description: Binding affinity towards cloned human 5-hydroxytryptamine 1D receptor.
Experiment [2] concerns the target T1, 5-hydroxytryptamine receptor 1B (Homo sapiens, UniProt P28222). Description: Binding affinity towards cloned human 5-hydroxytryptamine 1B receptor.
Experiment [3] deals with T1, 5-hydroxytryptamine receptor 1B. Description: Selectivity ratio against cloned human 5-HT1B receptor to that of h5-HT1D receptor.

Molecules are shown by their SMILES.

T1 sequence (P28222 whole entry): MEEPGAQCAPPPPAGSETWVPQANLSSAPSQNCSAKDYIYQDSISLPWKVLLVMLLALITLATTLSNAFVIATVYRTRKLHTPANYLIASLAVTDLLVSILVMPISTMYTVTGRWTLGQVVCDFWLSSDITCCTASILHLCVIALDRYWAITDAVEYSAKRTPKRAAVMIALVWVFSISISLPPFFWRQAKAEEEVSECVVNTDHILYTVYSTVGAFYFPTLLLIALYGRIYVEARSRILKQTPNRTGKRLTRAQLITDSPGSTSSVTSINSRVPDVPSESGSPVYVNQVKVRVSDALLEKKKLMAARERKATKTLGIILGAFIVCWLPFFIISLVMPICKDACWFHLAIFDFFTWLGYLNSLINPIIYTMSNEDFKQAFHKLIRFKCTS
Chain of 5-hydroxytryptamine receptor 1D (P28221 whole entry): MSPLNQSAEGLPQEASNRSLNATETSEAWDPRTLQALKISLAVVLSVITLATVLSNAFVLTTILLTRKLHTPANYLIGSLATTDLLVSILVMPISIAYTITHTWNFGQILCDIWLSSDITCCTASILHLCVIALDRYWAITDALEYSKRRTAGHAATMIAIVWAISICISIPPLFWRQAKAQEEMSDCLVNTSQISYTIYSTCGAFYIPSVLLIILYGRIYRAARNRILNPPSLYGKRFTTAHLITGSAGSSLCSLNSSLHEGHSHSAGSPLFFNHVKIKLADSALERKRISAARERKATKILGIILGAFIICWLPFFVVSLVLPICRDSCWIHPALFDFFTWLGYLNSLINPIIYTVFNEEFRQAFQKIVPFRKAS

In the case of `Cc1ccc(S(=O)(=O)N2CC=C(c3ccc4[nH]cc(C[C@H]5CCCN5C)c4c3)CC2)cc1`, the Ki in experiment [1] stood at 0.8 nM; in experiment [2], 17 nM. Further, in experiment [3], the Selectivity was 21.

As to `COc1ccc(NC(=O)N2CC=C(c3ccc4[nH]cc(C[C@H]5CCCN5C)c4c3)CC2)cc1`, the Ki in experiment [1] was 0.42 nM; in experiment [2], 4.2 nM. Further, the Selectivity in experiment [3] was 10.

Consider `CN1CCC[C@@H]1Cc1c[nH]c2ccc(C3=CCN(/C(S)=N/C45C[C@H]6C[C@@H](C4)C[C@@H](C5)C6)CC3)cc12`, for which the figures for the Ki in experiment [1] and in experiment [2] were 5.6 nM and 39 nM, respectively. The Selectivity in experiment [3] came out at 7.

For `Cc1ccc(/N=C(\S)N2CC=C(c3ccc4[nH]cc(C[C@H]5CCCN5C)c4c3)CC2)cc1`, the Selectivity in experiment [3] stood at 3.9.

In the case of `COc1ccc(S(=O)(=O)N2CC=C(c3ccc4[nH]cc(C[C@H]5CCCN5C)c4c3)CC2)cc1`, the Ki was 0.76 nM in experiment [1] and 14 nM in experiment [2]. Further, the Selectivity in experiment [3] was determined as 19.

With `CN1CCC[C@@H]1Cc1c[nH]c2ccc(C3=CCN(S(=O)(=O)c4cccc5ccccc45)CC3)cc12`, the Ki came to 0.88 nM in experiment [1] and 23 nM in experiment [2]. Also, the Selectivity in experiment [3] came out at 26.

In the case of `CN1CCC[C@@H]1Cc1c[nH]c2ccc(C3=CCN(C(=O)Nc4ccc(Cl)cc4)CC3)cc12`, the Ki worked out at 0.38 nM in experiment [1] and 3.8 nM in experiment [2]. Besides, the Selectivity in experiment [3] worked out at 10.

Take `CN1CCC[C@@H]1Cc1c[nH]c2ccc(C3=CCN(C(=S)NC4CCCCC4)CC3)cc12`: the figures for the Ki in experiment [1] and in experiment [2] were 2 nM and 13 nM, respectively.

For the molecule `CN1CCC[C@@H]1Cc1c[nH]c2ccc(C3=CCN(/C(S)=N/c4ccccc4)CC3)cc12`, the Selectivity in experiment [3] is 8.5.

Regarding `CN1CCC[C@@H]1Cc1c[nH]c2ccc(C3=CCN(C(=O)Nc4ccccc4)CC3)cc12`, the Ki in experiment [1] stood at 0.45 nM; in experiment [2], 4.8 nM. Further, in experiment [3], the Selectivity is 11.

As for `Cc1ccc(NC(=O)N2CC=C(c3ccc4[nH]cc(C[C@H]5CCCN5C)c4c3)CC2)cc1`, the results for the Ki in experiment [1] and in experiment [2] were 0.31 nM and 3 nM, respectively. In addition, in experiment [3], the Selectivity stood at 9.7.

For `COc1ccc(NC(=S)N2CC=C(c3ccc4[nH]cc(C[C@H]5CCCN5C)c4c3)CC2)cc1`, the Ki in experiment [1] was 0.46 nM; in experiment [2] it was 2.4 nM. Also, the Selectivity in experiment [3] was determined as 5.2.

Turning to `CN1CCC[C@@H]1Cc1c[nH]c2ccc(C3=CCN(C(=O)NC4CCCCC4)CC3)cc12`, the Ki in experiment [1] worked out at 3 nM; in experiment [2], 14 nM. Besides, in experiment [3], the Selectivity was found to be 4.6.

Consider `CN(C)CCc1c[nH]c2ccc(C3=CCN(C)CC3)cc12`, for which the Ki in experiment [1] is 8 nM; in experiment [2], 610 nM.

As to `CN1CCC[C@@H]1Cc1c[nH]c2ccc(C3=CCN(/C(S)=N/c4ccc(Cl)cc4)CC3)cc12`, the Ki is 0.56 nM in experiment [1] and 1.5 nM in experiment [2]. Also, the Selectivity in experiment [3] worked out at 2.7.

With `CN1CCC[C@@H]1Cc1c[nH]c2ccc(C3=CCN(/C(S)=N/c4cccc5ccccc45)CC3)cc12`, the Ki in experiment [1] worked out at 0.7 nM; in experiment [2] it was 3.2 nM. The Selectivity in experiment [3] amounted to 4.6.

In the case of `CN1CCC[C@@H]1Cc1c[nH]c2ccc(C3=CCN(C(=O)Nc4cccc5ccccc45)CC3)cc12`, the Ki in experiment [1] amounted to 0.45 nM; in experiment [2], 3.8 nM. The Selectivity in experiment [3] amounted to 8.4.

Take `Cc1ccc(NC(=S)N2CC=C(c3ccc4[nH]cc(C[C@H]5CCCN5C)c4c3)CC2)cc1`: the Ki in experiment [1] was determined as 0.38 nM; in experiment [2], 1.5 nM.

Consider `CN1CCC[C@@H]1Cc1c[nH]c2ccc(C3=CCN(C(=S)Nc4ccccc4)CC3)cc12`, for which the values for the Ki in experiment [1] and in experiment [2] were 0.68 nM and 5.8 nM, respectively.

`CN1CCC[C@@H]1Cc1c[nH]c2ccc(C3=CCN(/C(S)=N/C4CCCCC4)CC3)cc12`: the Selectivity in experiment [3] amounted to 6.3.

With `CN1CCC[C@@H]1Cc1c[nH]c2ccc(C3=CCN(C(=O)NC45C[C@H]6C[C@@H](C4)C[C@@H](C5)C6)CC3)cc12`, the Ki in experiment [1] turned out to be 4 nM; in experiment [2] it was 11 nM. The Selectivity in experiment [3] turned out to be 2.8.
